Data on 20 compounds can be found in patent US9315458B2, “Nitrogen-containing heterocyclic compound” (Takeda Pharmaceutical Company Limited, priority 2014, dated 2016).

In this assay the target is T1, human M1 receptor (hCHRM1) (Homo sapiens, UniProt P11229).
T1 construct: expressed in transfected cells
T1 sequence (P11229 1-460): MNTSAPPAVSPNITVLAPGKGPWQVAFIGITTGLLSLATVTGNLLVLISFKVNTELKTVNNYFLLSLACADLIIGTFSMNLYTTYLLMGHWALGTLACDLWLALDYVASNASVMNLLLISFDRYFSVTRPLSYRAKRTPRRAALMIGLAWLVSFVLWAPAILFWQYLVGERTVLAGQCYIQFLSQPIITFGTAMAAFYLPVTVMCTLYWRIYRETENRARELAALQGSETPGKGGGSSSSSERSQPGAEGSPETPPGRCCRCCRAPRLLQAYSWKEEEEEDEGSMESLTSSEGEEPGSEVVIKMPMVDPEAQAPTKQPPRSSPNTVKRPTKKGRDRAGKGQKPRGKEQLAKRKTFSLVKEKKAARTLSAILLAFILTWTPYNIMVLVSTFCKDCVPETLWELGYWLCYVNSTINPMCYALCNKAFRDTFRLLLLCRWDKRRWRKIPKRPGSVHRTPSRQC
In words: Measurement of M1 receptor positive allosteric modulator (M1PAM) activity, calcium fluorescence (FLIPRtetra) with acetylcholine at EC20. It is filed as cell-based. The settings on record: for activity (%) at 10 μM: 10 μM test compound, 100% = acetylcholine 1 μM, 0% = DMSO, acetylcholine at EC20; for EC50: inflection point of concentration-dependent curve, CHO-K1 cells expressing hCHRM1, acetylcholine at EC20 (final 0.6-0.8 nM), read-out: IP value. As to the method:
The activity of a test compound in the presence of acetylcholine at EC20 concentration (final concentration 0.6-0.8 nM), which affords an action corresponding to about 20% of the maximum activity, was measured as PAM activity. The method is as follows. CHO-K1 cells stably expressing a human M1 receptor (hCHRM1) were plated on a 384-well black clear bottom plate (BD Falcon) at 5,000 cells/well, and cultured in an incubator at 37° C., 5% CO2 for 1 day. The medium in the cell plate was removed, and assay buffer A (Recording medium (DOJINDO LABORATORIES), 0.1% BSA (Wako Pure Chemical Industries, Ltd.), 2.5 μg/mL Fluo-4 AM (DOJINDO LABORATORIES), 0.08% Pluronic F127 (DOJINDO LABORATORIES), 1.25 mM probenecid (DOJINDO LABORATORIES)) containing a calcium indicator was added at 30 μL/well. The cells were left standing in the incubator at 37° C., 5% CO2 for 30 min, and further left standing at room temperature for 30 min. A test compound prepared by diluting with assay buffer B (HBSS (Invitrogen), 20 mM HEPES (Invitrogen), 0.1% BSA) containing 2.4-3.2 nM acetylcholine was added at 10 μL/well, and the fluorescence was measured by FLIPRtetra (Molecular Devices) for 1 min every 1 second. With the definition that the amount of change in the fluorescence on addition of acetylcholine (final concentration 1 μM) is 100% and that on addition of DMSO instead of a test compound is 0%, the activity (%) of the test compound was calculated, and the inflection point in the concentration-dependent curve of the test compound was calculated as IP values.

Molecules are shown by their SMILES.

As for `Cn1cc(-c2ccc(Cc3ccc4c(c3)C(=O)N([C@H]3CCCC[C@@H]3O)C4)cn2)cn1` (racemic) [Example 1, rac-2-(trans-2-hydroxycyclohexyl)-6-((6-(1-methyl-1H-pyrazol-4-yl)pyridin-3-yl)methyl)isoindolin-1-one], the “activity (%) at 10 μM” value was determined as 111% and the EC50 amounted to 750 nM.
For `O=C1c2cc(Cc3ccc(-n4cccn4)cc3)c(Cl)cc2CN1[C@H]1CCCC[C@@H]1O` (racemic) [Example 2, rac-5-chloro-2-(trans-2-hydroxycyclohexyl)-6-(4-(1H-pyrazol-1-yl)benzyl)isoindolin-1-one] the same measures were 109% and 86 nM.
For `COc1cc2c(cc1Cc1ccc(-n3cccn3)cc1)C(=O)N([C@H]1CCCC[C@@H]1O)C2` (racemic) [Example 3, rac-2-(trans-2-hydroxycyclohexyl)-5-methoxy-6-(4-(1H-pyrazol-1-yl)benzyl)isoindolin-1-one] the same measures were 106% and 15 nM.
`Cc1cc2c(cc1Cc1ccc(-c3cn(C)nc3C)nc1)C(=O)N([C@H]1CCCC[C@@H]1O)C2` (racemic) [Example 5, rac-6-((6-(1,3-dimethyl-1H-pyrazol-4-yl)pyridin-3-yl)methyl)-2-(trans-2-hydroxycyclohexyl)-5-methylisoindolin-1-one]: the “activity (%) at 10 μM” value is given as 102% and the EC50 was 8.2 nM.
The corresponding values for `Cc1cc(-c2ccc(Cc3cc4c(cc3C)CN([C@H]3CCCC[C@@H]3O)C4=O)cn2)ccn1` (racemic) [Example 6, rac-2-(trans-2-hydroxycyclohexyl)-5-methyl-6-((2′-methyl-2,4′-bipyridin-5-yl)methyl)isoindolin-1-one] are 101% and 5.3 nM.
Consider `O=C1c2cc(Cc3ccc(-n4cccn4)cc3)c(C3CC3)cc2CN1[C@H]1CCC[C@@H]1O` (racemic) [Example 9, rac-5-cyclopropyl-2-(trans-2-hydroxycyclopentyl)-6-(4-(1H-pyrazol-1-yl)benzyl)isoindolin-1-one], for which the “activity (%) at 10 μM” value is listed as 102% and the EC50 was 43 nM.
For `O=C1c2cc(Cc3ccc(-n4cccn4)cc3)c(C(F)(F)F)c(Cl)c2CN1[C@H]1CCCC[C@@H]1O` (racemic) [Example 10, rac-4-chloro-2-(trans-2-hydroxycyclohexyl)-6-(4-(1H-pyrazol-1-yl)benzyl)-5-(trifluoromethyl)isoindolin-1-one] the same measures were 106% and 66 nM.
The corresponding values for `Cc1c(C#N)c(Cc2ccc(-n3cccn3)cc2)cc2c1CN([C@H]1CCCC[C@@H]1O)C2=O` (racemic) [Example 11, rac-2-(trans-2-hydroxycyclohexyl)-4-methyl-1-oxo-6-(4-(1H-pyrazol-1-yl)benzyl)isoindoline-5-carbonitrile] are 105% and 13 nM.
For `COc1c(Cc2ccc(-n3cccn3)cc2)cc2c(c1Cl)CN([C@H]1CCCC[C@@H]1O)C2=O` (racemic) [Example 12, rac-4-chloro-2-(trans-2-hydroxycyclohexyl)-5-methoxy-6-(4-(1H-pyrazol-1-yl)benzyl)isoindolin-1-one] the same measures were 91% and 7.7 nM.
For the compound `Cc1c(Cc2ccc(-c3cnn(C)c3)nc2)cc2c(c1C)CN([C@H]1CCCC[C@@H]1O)C2=O` (racemic) [Example 28, rac-2-(trans-2-hydroxycyclohexyl)-4,5-dimethyl-6-((6-(1-methyl-1H-pyrazol-4-yl)pyridin-3-yl)methyl)isoindolin-1-one], the “activity (%) at 10 μM” value turned out to be 106% and the EC50 was determined as 4.8 nM.
For `Cc1c(Cc2ccc(-n3cccn3)cc2)cc2c(c1C)CN([C@H]1CCCC[C@@H]1O)C2=O` (racemic) [Example 29, rac-2-(trans-2-hydroxycyclohexyl)-4,5-dimethyl-6-(4-(1H-pyrazol-1-yl)benzyl)isoindolin-1-one] the same measures were 102% and 9.5 nM.
For `Cc1cc2c(cc1Cc1ccc(-n3cccn3)cc1)C(=O)N([C@H]1CCCC[C@@H]1O)C2` (racemic) [Example 32, rac-2-(trans-2-hydroxycyclohexyl)-5-methyl-6-(4-(1H-pyrazol-1-yl)benzyl)isoindolin-1-one] the same measures were 99% and 5.6 nM.
For `Cc1cc2c(cc1Cc1ccc(-n3cccn3)cc1)C(=O)N([C@H]1CCC[C@@H]1O)C2` (racemic) [Example 33, rac-2-(trans-2-hydroxycyclopentyl)-5-methyl-6-(4-(1H-pyrazol-1-yl)benzyl)isoindolin-1-one] the same measures were 95% and 37 nM.
With `Cc1c(Cc2ccc(-n3cccn3)cc2)cc2c(c1C)CN([C@H]1CCC[C@@H]1O)C2=O` (racemic) [Example 34, rac-2-(trans-2-hydroxycyclopentyl)-4,5-dimethyl-6-(4-(1H-pyrazol-1-yl)benzyl)isoindolin-1-one], the “activity (%) at 10 μM” value turned out to be 108% and the EC50 is 18 nM.
The corresponding values for `Cc1c(Cc2ccc(-n3cccn3)cc2)cc2c(c1C)CN([C@H]1COCC[C@@H]1O)C2=O` (racemic) [Example 35, rac-2-(trans-4-hydroxytetrahydro-2H-pyran-3-yl)-4,5-dimethyl-6-(4-(1H-pyrazol-1-yl)benzyl)-2,3-dihydro-1H-isoindol-1-one] are 103% and 3.9 nM.
The corresponding values for `Cc1cc2c(cc1Cc1ccc(-c3cn(C)nc3C)nc1)C(=O)N([C@H]1CCC[C@@H]1O)C2` (racemic) [Example 40, rac-6-((6-(1,3-dimethyl-1H-pyrazol-4-yl)pyridin-3-yl)methyl)-2-(trans-2-hydroxycyclopentyl)-5-methylisoindolin-1-one] are 97% and 37 nM.
For `Cc1cc(-c2ccc(Cc3cc4c(cc3C)CN([C@H]3CCC[C@@H]3O)C4=O)cn2)ccn1` (racemic) [Example 41, rac-2-(trans-2-hydroxycyclopentyl)-5-methyl-6-((2′-methyl-2,4′-bipyridin-5-yl)methyl)isoindolin-1-one] the same measures were 97% and 30 nM.
As to `Cc1cc2c(cc1Cc1ccc(-c3ccn(C)n3)nc1)C(=O)N([C@H]1CCCC[C@@H]1O)C2` (racemic) [Example 42, rac-2-(trans-2-hydroxycyclohexyl)-5-methyl-6-((6-(1-methyl-1H-pyrazol-3-yl)pyridin-3-yl)methyl)isoindolin-1-one], the “activity (%) at 10 μM” value came out at 115% and the EC50 is 9.2 nM.
For `Cc1cc2c(cc1Cc1ccc(-c3ccn(C)n3)nc1)C(=O)N([C@H]1CCC[C@@H]1O)C2` (racemic) [Example 43, rac-2-(trans-2-hydroxycyclopentyl)-5-methyl-6-((6-(1-methyl-1H-pyrazol-3-yl)pyridin-3-yl)methyl)isoindolin-1-one] the same measures were 110% and 98 nM.
For `Cc1cc2c(cc1Cc1ccc(-c3cn(C)nn3)cc1)C(=O)N([C@H]1CCCC[C@@H]1O)C2` (racemic) [Example 47, rac-2-(trans-2-hydroxycyclohexyl)-5-methyl-6-(4-(1-methyl-1H-1,2,3-triazol-4-yl)benzyl)isoindolin-1-one] the same measures were 99% and 3 nM.
